Patent publication US20180000085A1, “USE OF PICOLINAMIDE COMPOUNDS WITH FUNGICIDAL ACTIVITY” (DOW AGROSCIENCES LLC, priority 2014, published 2018)

Key:
[1] = test system: Zymoseptoria tritici; assay: Leaf blotch of wheat (SEPTTR) disease control on wheat seedlings; type: in vivo; parameters: key to SEPTTR 1DP, HV activity at 100 ppm (% control rating) / SEPTTR 3DC, HV activity at 100 ppm (% control rating) / SEPTTR disease control, 1DP / SEPTTR disease control, 3DC / SEPTTR 1DP disease control rating, HV activity / SEPTTR 3DC disease control rating, HV activity / SEPTTR 3DC, LV activity at 125.1 g/H (% Control rating) / SEPTTR 1DP, LV activity at 125.1 g/H (% Control rating) / SEPTTR 1DP disease control rating, LV activity at 125.1 g/H / SEPTTR 3DC disease control rating, LV activity at 125.1 g/H / SEPTTR 3DC disease control rating, HV activity at 100 ppm / SEPTTR 1DP disease control rating, HV activity at 100 ppm / HV activity at 100 ppm SEPTTR 3DC (disease control rating) / HV activity at 100 ppm SEPTTR 1DP (disease control rating) / LV activity at 125.1 g/H SEPTTR 1DP (disease control rating) / LV activity at 125.1 g/H SEPTTR 3DC (disease control rating): A: > 80; B: ≤ 80; C: Not Tested; D: No Activity Observed in the Reported Assay; details: for SEPTTR 1DP disease control rating, HV activity / SEPTTR 3DC disease control rating, HV activity: HV application at 100 ppm; for SEPTTR 1DP disease control rating, LV activity at 125.1 g/H: 1 day protectant; for SEPTTR 3DC disease control rating, LV activity at 125.1 g/H: 3 day curative
[2] = test system: Puccinia triticina; assay: Wheat brown rust (PUCCRT) disease control on wheat seedlings; type: in vivo; parameters: key to PUCCRT 3DC, HV activity at 100 ppm (% control rating) / PUCCRT disease control, 3DC / PUCCRT 1DP disease control rating, HV activity / PUCCRT 3DC disease control rating, HV activity / PUCCRT 3DC, LV activity at 125.1 g/H (% Control rating) / PUCCRT 1DP, LV activity at 125.1 g/H (% Control rating) / PUCCRT 3DC disease control rating, LV activity at 125.1 g/H / PUCCRT 1DP disease control rating, LV activity at 125.1 g/H / PUCCRT 3DC disease control rating, HV activity at 100 ppm / PUCCRT 1DP disease control rating, HV activity at 100 ppm / HV activity at 100 ppm PUCCRT 3DC (disease control rating) / LV activity at 125.1 g/H PUCCRT 1DP (disease control rating) / LV activity at 125.1 g/H PUCCRT 3DC (disease control rating): A: > 80; B: ≤ 80; C: Not Tested; D: No Activity Observed in the Reported Assay; details: for PUCCRT 1DP disease control rating, HV activity / PUCCRT 3DC disease control rating, HV activity: HV application at 100 ppm; for PUCCRT 1DP disease control rating, LV activity at 125.1 g/H: 1 day protectant; for PUCCRT 3DC disease control rating, LV activity at 125.1 g/H: 3 day curative
[3] = 1 Day Protectant, wheat leaf blotch
[4] = 3 Day Curative, wheat leaf blotch
[5] = 1 Day Protectant, wheat brown rust
[6] = 3 Day Curative, wheat brown rust
[7] = low volume application, 125.1 g/H
[8] = low volume application, 125.1 g/H, 1 Day Protectant
[9] = low volume application, 125.1 g/H, 3 Day Curative
[10] = low volume application, 125.1 g/H, 1 Day Protectant, wheat leaf blotch
[11] = low volume application, 125.1 g/H, 3 Day Curative, wheat leaf blotch
[12] = low volume application, 125.1 g/H, 1 Day Protectant, wheat brown rust
[13] = low volume application, 125.1 g/H, 3 Day Curative, wheat brown rust

In the case of COc1ccnc(C(=O)N[C@@H](C)C(=O)O[C@@H](C)COCc2ccccc2)c1O [Cmpd 331], the “SEPTTR 1DP disease control rating, HV activity” value [1, 3] is reported as “B (≤ 80)”, the “SEPTTR 3DC disease control rating, HV activity” value [1, 4] is reported as “D” and the “PUCCRT 1DP disease control rating, HV activity” value [2, 5] is reported as “B (≤ 80)”. For the same molecule, the “PUCCRT 3DC disease control rating, HV activity” value [2, 6] was “A (> 80)”.
In the case of CCCO[C@@H](C(C)C)[C@H](C)OC(=O)[C@H](C)NC(=O)c1nccc(OC)c1OCOC(C)=O [Cmpd 850], the “SEPTTR 1DP disease control rating, LV activity at 125.1 g/H” value [1, 7] is reported as “D”, the “SEPTTR 3DC disease control rating, LV activity at 125.1 g/H” value [1, 7] is reported as “B (≤ 80)” and the “PUCCRT 1DP disease control rating, LV activity at 125.1 g/H” value [2, 7] is reported as “B (≤ 80)”. For the same molecule, the “PUCCRT 3DC disease control rating, LV activity at 125.1 g/H” value [2, 7] was “A (> 80)”.
COc1ccnc(C(=O)NC(C)C(=O)OC(C)C(Oc2ccc(F)cc2)C(C)C)c1O (stereo not drawn) [Cmpd 391] was tested, and the “SEPTTR 1DP disease control rating, HV activity” value [1, 3] was “A (> 80)”, the “SEPTTR 3DC disease control rating, HV activity” value [1, 4] was “A (> 80)” and the “PUCCRT 1DP disease control rating, HV activity” value [2, 5] was “A (> 80)”. For the same molecule, the “PUCCRT 3DC disease control rating, HV activity” value [2, 6] was “A (> 80)”.
For COc1ccnc(C(=O)N[C@@H](C)C(=O)O[C@@H](C)[C@H](Oc2cccc3ccccc23)C(C)C)c1OC(C)=O [Cmpd 631], the “SEPTTR 1DP, LV activity at 125.1 g/H (% Control rating)” value [1, 8] was “B (≤ 80)”, the “SEPTTR 3DC, LV activity at 125.1 g/H (% Control rating)” value [1, 9] was “D” and the “PUCCRT 1DP, LV activity at 125.1 g/H (% Control rating)” value [2, 8] was “A (> 80)”. The “PUCCRT 3DC, LV activity at 125.1 g/H (% Control rating)” value [2, 9] was “A (> 80)”.
COc1ccnc(C(=O)N[C@@H](C)C(=O)O[C@@H](C)[C@H](Oc2ccc(C)cc2)C(C)(C)C)c1OC(C)=O [Cmpd 1059] was tested, and the “LV activity at 125.1 g/H SEPTTR 1DP (disease control rating)” value (shortened to “LV activity at 125.1 g/H SEPTTR 1DP”) [1, 10] was “B (≤ 80)”, the “LV activity at 125.1 g/H SEPTTR 3DC (disease control rating)” value (shortened to “LV activity at 125.1 g/H SEPTTR 3DC”) [1, 11] was “B (≤ 80)” and the “LV activity at 125.1 g/H PUCCRT 1DP (disease control rating)” value (shortened to “LV activity at 125.1 g/H PUCCRT 1DP”) [2, 12] was “A (> 80)”. The “LV activity at 125.1 g/H PUCCRT 3DC (disease control rating)” value (shortened to “LV activity at 125.1 g/H PUCCRT 3DC”) [2, 13] was “A (> 80)”.
With COc1ccnc(C(=O)N[C@@H](C)C(=O)O[C@@H](C)[C@@H](CC(C)C)Oc2cc(F)ccc2F)c1OC(C)=O [Cmpd 1114] the “LV activity at 125.1 g/H SEPTTR 1DP” value [1, 10] was “A (> 80)”, the “LV activity at 125.1 g/H SEPTTR 3DC” value [1, 11] was “A (> 80)” and the “LV activity at 125.1 g/H PUCCRT 1DP” value [2, 12] was “A (> 80)”. For the same molecule, the “LV activity at 125.1 g/H PUCCRT 3DC” value [2, 13] was “A (> 80)”.
With COc1ccnc(C(=O)NC(C)C(=O)OC(C)C(Oc2ccc(Cl)cc2Cl)c2ccccc2)c1OC(C)=O (stereo not drawn) [Cmpd 867] the “SEPTTR 1DP disease control rating, LV activity at 125.1 g/H” value [1, 7] was “A (> 80)”, the “SEPTTR 3DC disease control rating, LV activity at 125.1 g/H” value [1, 7] was “A (> 80)” and the “PUCCRT 1DP disease control rating, LV activity at 125.1 g/H” value [2, 7] was “A (> 80)”. For the same molecule, the “PUCCRT 3DC disease control rating, LV activity at 125.1 g/H” value [2, 7] was “B (≤ 80)”.
For COc1cc(O[C@H](C2CC2)[C@H](C)OC(=O)[C@H](C)NC(=O)c2nccc(OC)c2OC(C)=O)ccc1Cl [Cmpd 1069], the “LV activity at 125.1 g/H SEPTTR 1DP” value [1, 10] was “B (≤ 80)”, the “LV activity at 125.1 g/H SEPTTR 3DC” value [1, 11] was “B (≤ 80)” and the “LV activity at 125.1 g/H PUCCRT 1DP” value [2, 12] was “A (> 80)”. For the same molecule, the “LV activity at 125.1 g/H PUCCRT 3DC” value [2, 13] was “A (> 80)”.
For CCCC(NC(=O)c1nccc(OC)c1OCOC(C)=O)C(=O)OC(C)C(CCc1ccccc1)OCC(C)C (stereo not drawn) [Cmpd 444], the “SEPTTR 1DP disease control rating, HV activity” value [1, 3] was “A (> 80)”, the “SEPTTR 3DC disease control rating, HV activity” value [1, 4] was “A (> 80)” and the “PUCCRT 1DP disease control rating, HV activity” value [2, 5] was “A (> 80)”. For the same molecule, the “PUCCRT 3DC disease control rating, HV activity” value [2, 6] was “B (≤ 80)”.
With COc1cc(O[C@H](CC(C)C)[C@H](C)OC(=O)[C@H](C)NC(=O)c2nccc(OC)c2O)ccc1Cl [Cmpd 1052] the “HV activity at 100 ppm SEPTTR 1DP (disease control rating)” value ([1]; HV application, 100 ppm, 1 Day Protectant, wheat leaf blotch) was “A (> 80)”, the “HV activity at 100 ppm SEPTTR 3DC (disease control rating)” value ([1]; HV application, 100 ppm, 3 Day Curative, wheat leaf blotch) was “A (> 80)” and the “HV activity at 100 ppm PUCCRT 1DP (disease control rating)” value ([2]; HV application, 100 ppm, 1 Day Protectant, wheat brown rust) was “A (> 80)”. For the same molecule, the “HV activity at 100 ppm PUCCRT 3DC (disease control rating)” value ([2]; HV application, 100 ppm, 3 Day Curative, wheat brown rust) was “A (> 80)”.
With COc1ccnc(C(=O)N[C@@H](C)C(=O)O[C@@H](C)COCC(C)C)c1O [Cmpd 339] the “SEPTTR 1DP disease control rating, HV activity” value [1, 3] was “B (≤ 80)”, the “SEPTTR 3DC disease control rating, HV activity” value [1, 4] was “D” and the “PUCCRT 1DP disease control rating, HV activity” value [2, 5] was “B (≤ 80)”. The “PUCCRT 3DC disease control rating, HV activity” value [2, 6] was “A (> 80)”.
For CCCOC(CC)C(Oc1ccccc1)C(C)OC(=O)C1(NC(=O)c2nccc(OC)c2O)CC1 (stereo not drawn) [Cmpd 416], the “SEPTTR 1DP disease control rating, HV activity” value [1, 3] was “B (≤ 80)”, the “SEPTTR 3DC disease control rating, HV activity” value [1, 4] was “D” and the “PUCCRT 1DP disease control rating, HV activity” value [2, 5] was “B (≤ 80)”. The “PUCCRT 3DC disease control rating, HV activity” value [2, 6] was “D”.
